Results published in ChEMBL document CHEMBL3885881, “DrugMatrix”.

Species: Rattus norvegicus
Assay: DrugMatrix - Regimen: Daily Repeat
Assay type: toxicity, organism-based, Sprague-Dawley
Set-up: regimen Daily Repeat, gender Male, age 6-8 weeks
Settings: in vivo, po, 50 mg/kg, route oral GAVAGE, dose level Low, […]; for ABSOLUTE BASOPHIL / ABSOLUTE EOSINOPHIL / ABSOLUTE LYMPHOCYTE / ABSOLUTE MONOCYTE / ABSOLUTE SEGMENTED NEUTROPHIL / BASOPHIL / EOSINOPHIL / ERYTHROCYTE COUNT / HEMATOCRIT / HEMOGLOBIN / LEUKOCYTE COUNT / LYMPHOCYTE / MEAN CORPUSCULAR HEMOGLOBIN / MEAN CORPUSCULAR HEMOGLOBIN CONCENTRATION / MEAN CORPUSCULAR VOLUME / MONOCYTE / NEUTROPHIL / NUCLEATED RED BLOOD CELLS / PLATELET COUNT: tissue Blood; for ALANINE AMINOTRANSFERASE / ALBUMIN / ALKALINE PHOSPHATASE / ASPARTATE AMINOTRANSFERASE / BLOOD UREA NITROGEN / CARBON DIOXIDE / CHLORIDE / CHOLESTEROL / CREATINE PHOSPHOKINASE / CREATININE / GLUCOSE / LACTATE DEHYDROGENASE / LIPASE / PHOSPHORUS / POTASSIUM / SODIUM / TOTAL BILIRUBIN / TOTAL PROTEIN / URIC ACID: tissue Plasma

## COC(=O)Nc1nc2ccc(Sc3ccccc3)cc2[nH]1 [FENBENDAZOLE]
72 h, time 3 day
  ABSOLUTE BASOPHIL: 0 CELLS/uL
  ABSOLUTE EOSINOPHIL: 0 CELLS/uL
  ABSOLUTE LYMPHOCYTE: 13096 CELLS/uL
  ABSOLUTE MONOCYTE: 168.67 CELLS/uL
  ABSOLUTE SEGMENTED NEUTROPHIL: 1268.67 CELLS/uL
  BASOPHIL: 0%
  EOSINOPHIL: 0%
  ERYTHROCYTE COUNT: 5.64 x10E6/uL
  HEMATOCRIT: 35.13%
  HEMOGLOBIN: 13.37 G/DL
  LEUKOCYTE COUNT: 14.53 x10E3/uL
  LYMPHOCYTE: 90.33%
  MEAN CORPUSCULAR HEMOGLOBIN: 23.7 pg
  MEAN CORPUSCULAR HEMOGLOBIN CONCENTRATION: 38.07 G/DL
  MEAN CORPUSCULAR VOLUME: 62.37 fL
  MONOCYTE: 1%
  NEUTROPHIL: 8.67%
  NUCLEATED RED BLOOD CELLS: 0 /100WBC
  PLATELET COUNT: 1087 x10E3/uL
  ALANINE AMINOTRANSFERASE: 79 u/L
  ALBUMIN: 4.07 G/DL
  ALKALINE PHOSPHATASE: 536.67 u/L
  ASPARTATE AMINOTRANSFERASE: 137.67 u/L
  BLOOD UREA NITROGEN: 15 mg/dL
  CARBON DIOXIDE: 27.33 mmol/L
  CHLORIDE: 99.33 MEQ/L
  CHOLESTEROL: 87.33 mg/dL
  CREATINE PHOSPHOKINASE: 508.67 u/L
  CREATININE: 0.16 mg/dL
  GLUCOSE: 146.33 mg/dL
  LACTATE DEHYDROGENASE: 359 u/L
  LIPASE: 10.67 u/L
  PHOSPHORUS: 13.07 mg/dL
  POTASSIUM: 6.5 MEQ/L
  SODIUM: 143.5 MEQ/L
  TOTAL BILIRUBIN: 0.3 mg/dL
  TOTAL PROTEIN: 5.6 G/DL
  URIC ACID: 1.7 mg/dL
120 h, time 5 day
  ABSOLUTE BASOPHIL: 0 CELLS/uL
  ABSOLUTE EOSINOPHIL: 126 CELLS/uL
  ABSOLUTE LYMPHOCYTE: 15732 CELLS/uL
  ABSOLUTE MONOCYTE: 245.33 CELLS/uL
  ABSOLUTE SEGMENTED NEUTROPHIL: 1830 CELLS/uL
  BASOPHIL: 0%
  EOSINOPHIL: 0.67%
  ERYTHROCYTE COUNT: 6.25 x10E6/uL
  HEMATOCRIT: 37.37%
  HEMOGLOBIN: 14.73 G/DL
  LEUKOCYTE COUNT: 17.93 x10E3/uL
  LYMPHOCYTE: 88%
  MEAN CORPUSCULAR HEMOGLOBIN: 23.57 pg
  MEAN CORPUSCULAR HEMOGLOBIN CONCENTRATION: 39.43 G/DL
  MEAN CORPUSCULAR VOLUME: 59.83 fL
  MONOCYTE: 1.33%
  NEUTROPHIL: 10%
  NUCLEATED RED BLOOD CELLS: 0 /100WBC
  PLATELET COUNT: 1051.67 x10E3/uL
  ALANINE AMINOTRANSFERASE: 164.33 u/L
  ALBUMIN: 4.1 G/DL
  ALKALINE PHOSPHATASE: 601.67 u/L
  ASPARTATE AMINOTRANSFERASE: 203.67 u/L
  BLOOD UREA NITROGEN: 13.67 mg/dL
  CARBON DIOXIDE: 26.33 mmol/L
  CHLORIDE: 99.33 MEQ/L
  CHOLESTEROL: 85.33 mg/dL
  CREATINE PHOSPHOKINASE: 602.33 u/L
  CREATININE: 0.19 mg/dL
  GLUCOSE: 143.67 mg/dL
  LACTATE DEHYDROGENASE: 615.33 u/L
  LIPASE: 11 u/L
  PHOSPHORUS: 11.27 mg/dL
  POTASSIUM: 6.24 MEQ/L
  SODIUM: 142.9 MEQ/L
  TOTAL BILIRUBIN: 0.27 mg/dL
  TOTAL PROTEIN: 5.6 G/DL
  URIC ACID: 2.17 mg/dL
